This note sets out measurements from patent publication US6500840B2, “Quinuclidine-substituted heteroaryl moieties for treatment of disease” (Pharmacia & Upjohn Company, priority 2000, dated 2002).

Broadly, the Ki is a dissociation constant, usually derived from enzyme kinetics or from competition with a known ligand. Low readings indicate tighter binding, high ones weaker binding.

Where a name gives a salt, the structure may show the parent alone.

Chain of α7 nAChR (Q05941 23-502): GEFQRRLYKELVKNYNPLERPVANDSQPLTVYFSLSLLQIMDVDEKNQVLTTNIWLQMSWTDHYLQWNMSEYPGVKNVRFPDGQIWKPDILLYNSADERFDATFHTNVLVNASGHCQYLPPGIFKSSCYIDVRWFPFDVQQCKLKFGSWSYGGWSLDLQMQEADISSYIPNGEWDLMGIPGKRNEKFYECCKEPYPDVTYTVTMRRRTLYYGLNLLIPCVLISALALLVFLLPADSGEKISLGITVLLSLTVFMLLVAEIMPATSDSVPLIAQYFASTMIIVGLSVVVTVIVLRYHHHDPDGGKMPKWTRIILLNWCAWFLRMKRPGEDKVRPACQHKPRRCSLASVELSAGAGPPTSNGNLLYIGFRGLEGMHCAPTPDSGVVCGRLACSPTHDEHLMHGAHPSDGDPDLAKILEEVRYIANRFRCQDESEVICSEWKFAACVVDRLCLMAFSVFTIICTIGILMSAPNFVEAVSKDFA

The first assay concerns the target α7 nAChR (Rattus norvegicus, UniProt Q05941). Kind of assay: [3H]-MLA competition binding assay, rat brain membranes.
Details: not given
Turning to `O=C(N[C@H]1CN2CCC1CC2)c1ccc(Sc2ccc(F)c(Cl)c2)s1` [Example 36, N-[(3R)-1-azabicyclo[2.2.2]oct-3-yl]-5-(3-chloro-4-fluorophenylsulfanyl)-thiophene-2-carboxamide], the Ki is 110 to 115 nM.

The assay is the same for the next values; noted with them: Ki, inhibition of [3H]-MLA binding (3.0 to 4.0 nM), Sprague-Dawley rat whole brain minus cerebellum homogenate, 1 hour at 25° C.
Molecule `CC1C(NC(=O)c2ccc(Br)s2)C2CCN1CC2` (mixture of isomers) [Example 158, 5-Bromo-N-(2-methyl-1-azabicyclo[2.2.2]oct-3-yl)thiophene-2-carboxamide 4-Methylbenzenesulfonate] gave a Ki of 12 to 20 nM.

`O=C(N[C@H]1CN2CCC1CC2)c1ccc(-c2ccccc2)s1` [Example 1, N-[(3R)-1-Azabicyclo[2.2.2]oct-3-yl]-5-phenyl-thiophene-2-carboxamide Hydrochloride]: the inhibition constant (Ki) was in the range of 13 to 33 nM.

For the molecule `O=C(N[C@H]1CN2CCC1CC2)c1ccc(-c2ccc(Cl)cc2)s1` [Example 2, N-[(3R)-1-azabicyclo[2.2.2]oct-3-yl]-5-(4-clorophenyl)-thiophene-2-carboxamide hydrochloride], the affinity corresponds to a Ki of 110 nM.

For `O=C(N[C@H]1CN2CCC1CC2)c1ccc(-c2cccc(Cl)c2)s1` [Example 3, N-[(3R)-1-azabicyclo[2.2.2]oct-3-yl]-5-(3-chlorophenyl)-thiophene-2-carboxamide hydrochloride], the Ki is 95 to 157 nM.

`O=C(N[C@H]1CN2CCC1CC2)c1ccc(-c2ccccc2Cl)s1` [Example 4, N-[(3R)-1-azabicyclo[2.2.2]oct-3-yl]-5-(2-chlorophenyl)-thiophene-2-carboxamide hydrochloride] yielded a Ki of 60 to 73 nM.

Regarding `O=C(N[C@H]1CN2CCC1CC2)c1ccc(-c2ccsc2)s1` [Example 5, N-[(3R)-1-azabicyclo[2.2.2]oct-3-yl]-2,3′-bithiophene-5-carboxamide hydrochloride], the inhibitory constant (Ki) fell in the range of 9 to 15 nM.

Turning to `O=C(N[C@H]1CN2CCC1CC2)c1ccc(-c2ccccc2[N+](=O)[O-])s1` [Example 6, N-[(3R) 1-azabicyclo[2.2.2]oct-3-yl]-5-(2-nitrophenyl)-thiophene-2-carboxamide hydrochloride], the inhibitory constant (Ki) was in the range of 5 to 10 nM.

Regarding `O=C(N[C@H]1CN2CCC1CC2)c1ccc(-c2cccc([N+](=O)[O-])c2)s1` [Example 7, N-[(3R)-1-azabicyclo[2.2.2]oct-3-yl]-5-(3-nitrophenyl)-thiophene-2-carboxamide], the inhibition constant (Ki) fell in the range of 25 to 30 nM.

In the case of `O=C(N[C@H]1CN2CCC1CC2)c1cc(-c2ccccc2)cs1` [Example 8, N-[(3R)-1-azabicyclo[2.2.2]oct-3-yl]4-phenyl-thiophene-2-carboxamide hydrochloride], the Ki was determined as 46 nM.

For the molecule `O=C(N[C@H]1CN2CCC1CC2)c1ccc(-c2cccc(OCc3ccccc3)c2)s1` [Example 9, N-[(3R)-1-azabicyclo[2.2.2]oct-3-yl]-5-(3-benzyloxyphenyl)-thiophene-2-carboxamide hydrochloride], the inhibition constant Ki lay in the range of 540 to 570 nM.

The molecule `Nc1ccccc1-c1ccc(C(=O)N[C@H]2CN3CCC2CC3)s1` [Example 12, 5-(2-Aminophenyl)-N-[(3R)-1-azabicyclo[2.2.2]oct-3-yl]-thiophene-2-carboxamide] yielded a Ki of 45 to 75 nM.

Take `Cc1ccc(-c2ccc(C(=O)N[C@H]3CN4CCC3CC4)s2)s1` [Example 14, N-[(3R)-1-Azabicyclo[2.2.2]oct-3-yl]-5′-methyl-2,2′-bithiophene-5-carboxamide Hydrochloride]: the inhibition constant (Ki) lay within 12 to 16 nM.

In the case of `O=C(N[C@H]1CN2CCC1CC2)c1ccc(-c2ccc(Cl)s2)s1` [Example 15, N-[(3R)-1-Azabicyclo[2.2.2]oct-3-yl]-5′-chloro-2,2′-bithiophene-5-carboxamide Hydrochloride], the Ki fell in the range of 40 to 90 nM.

`O=C(N[C@H]1CN2CCC1CC2)c1ccc([N+](=O)[O-])s1` [Example 16, N-[(3R)-1-Azabicyclo[2.2.2]oct-3-yl]-5-nitro-thiophene-2-carboxamide Hydrochloride] showed a Ki of 3 to 8 nM.

`NCc1ccc(C(=O)N[C@H]2CN3CCC2CC3)s1` [Example 17, 5-(Aminomethyl)-N-[(3R)-1-azabicyclo[2.2.2]oct-3-yl]-thiophene-2-carboxamide Dihydrochloride] yielded a Ki of 260 to 385 nM.

Turning to `N#Cc1ccc(C(=O)N[C@H]2CN3CCC2CC3)s1` [Example 18, N-[(3R)-1-Azabicyclo[2.2.2]oct-3-yl]-5-cyano-thiophene-2-carboxamide Hydrochloride], the Ki was in the range of 240 to 290 nM.

`COc1ccc(C(=O)N[C@H]2CN3CCC2CC3)s1` [Example 19, N-[(3R)-1-Azabicyclo[2.2.2]oct-3-yl]-5-methoxy-thiophene-2-carboxamide Hydrochloride] returned a Ki of 24 nM.

`O=C(N[C@H]1CN2CCC1CC2)c1ccc(-c2ccccn2)s1` [Example 20, N-[(3R)-1-Azabicyclo[2.2.2]oct-3-yl]-5-(pyridin-2-yl)-thiophene-2-carboxamide]: the Ki was in the range of 3 to 5 nM.

`O=C(N[C@H]1CN2CCC1CC2)c1ccc(-c2cccs2)s1` [Example 21] gave a Ki of 1 to 2 nM.

For `CSc1ccc(C(=O)N[C@H]2CN3CCC2CC3)s1` [Example 22, N-[(3R)-1-Azabicyclo[2.2.2]oct-3-yl]-5-(methylsulfanyl)-thiophene-2-carboxamide], the inhibitory constant (Ki) lay within 1 to 6 nM.

`O=C(N[C@H]1CN2CCC1CC2)c1ccc(Cl)s1` [Example 23, N-[(3R)-1-azabicyclo[2.2.2]oct-3-yl]-5-chloro-thiophene-2-carboxamide] gave a Ki of 6 to 10 nM.

On to `Cc1ccc(C(=O)N[C@H]2CN3CCC2CC3)s1` [Example 25, N-[(3R)-1-azabicyclo[2.2.2]oct-3-yl]-5-methyl-thiophene-2-carboxamide], for which the Ki fell in the range of 10 to 15 nM.

For `O=C(N[C@H]1CN2CCC1CC2)c1ccc(Br)s1` [Example 26, N-[(3R)-1-azabicyclo[2.2.2]oct-3-yl]-5-bromo-thiophene-2-carboxamide], the inhibition constant (Ki) was 5 to 20 nM.

Take `O=C(N[C@H]1CN2CCC1CC2)c1ccc(Sc2ccccc2)s1` [Example 27, N-[(3R)-1-azabicyclo[2.2.2]oct-3-yl]-5-(phenylsulfanyl)-thiophene-2-carboxamide]: the inhibition constant (Ki) was in the range of 35 to 160 nM.

As to `O=C(N[C@H]1CN2CCC1CC2)c1ccc(Sc2ccc(Cl)cc2)s1` [Example 33, N-[(3R)-1-Azabicyclo[2.2.2]oct-3-yl]-5-(4-chlorophenylsulfanyl)-thiophene-2-carboxamide], the inhibition constant Ki was 27 nM. This lies in the double-digit nanomolar range.

Regarding `O=C(N[C@H]1CN2CCC1CC2)c1ccc(Sc2ccc(F)cc2F)s1` [Example 34, N-[(3R)-1-azabicyclo[2.2.2]oct-3-yl]-5-(2,4-difluorophenyl-sulfanyl)-thiophene-2-carboxamide hydrochloride], the inhibitory constant (Ki) is 30 to 39 nM.

`O=C(N[C@H]1CN2CCC1CC2)c1ccc(Sc2cccc(Cl)c2)s1` [Example 35, N-[(3R)-1-azabicyclo[2.2.2]oct-3-yl]-5-(3-chlorophenyl-sulfanyl)-thiophene-2-carboxamide]: the Ki is 30 to 50 nM.

The molecule `O=C(N[C@H]1CN2CCC1CC2)c1ccc(Oc2ccccc2)s1` [Example 40, N-[(3R)-1-Azabicyclo[2.2.2]oct-3-yl]-5-phenoxy-thiophene-2-carboxamide Hydrochloride] registered a Ki of 12 to 16 nM.

On to `O=C(N[C@H]1CN2CCC1CC2)c1ccc(-c2ccccc2O)s1` [Example 41, N-[(3R)-1-Azabicyclo[2.2.2]oct-3-yl]-5-(2-hydroxyphenyl)-thiophene-2-carboxamide Hydrochloride], for which the inhibitory constant (Ki) was determined as 34 nM.

The molecule `O=C(N[C@H]1CN2CCC1CC2)c1ccc(-c2ccc(O)c(F)c2)s1` [Example 43, N-[(3R)-1-Azabicyclo[2.2.2]oct-3-yl]-5-(3-fluoro-4-hydroxyphenyl)-thiophene-2-carboxamide Hydrochloride] displayed a Ki of 3 to 5 nM.

For the molecule `O=C(N[C@H]1CN2CCC1CC2)c1cnc(-c2ccccc2)s1` [Example 50, N-[(3R)-1-Azabicyclo[2.2.2]oct-3-yl]-2-phenyl-1,3-thiazole-5-carboxamide Fumarate], the inhibition constant (Ki) fell in the range of 68 to 564 nM.

In turn, `O=C(N[C@H]1CN2CCC1CC2)c1cnc(-c2ccccc2F)s1` [Example 52, N-[(3R)-1-Azabicyclo[2.2.2]oct-3-yl]-2-(2-fluorophenyl)-1,3-thiazole-5-carboxamide Citrate] returned an inhibitory constant (Ki) of 340 to 480 nM.

Turning to `O=C(N[C@H]1CN2CCC1CC2)c1cnc(-c2cccc(F)c2)s1` [Example 53, N-[(3R)-1-azabicyclo[2.2.2]oct-3-yl]-2-(3-fluorophenyl)-1,3-thiazole-5-carboxamide 4-methylbenzenesulfonate], the Ki is 1900 to 1970 nM.

For `O=C(N[C@H]1CN2CCC1CC2)c1cnc(-c2ccccc2O)s1` [Example 55, N-[(3R)-1-azabicyclo[2.2.2]oct-3-yl]-2-(2-hydroxyphenyl)-1,3-thiazole-5-carboxamide hydrochloride], the Ki was 60 to 70 nM.

In turn, `O=C(N[C@H]1CN2CCC1CC2)c1ncc(-c2cccc(Cl)c2)o1` [Example 79, N-[(3R)-1-Azabicyclo[2.2.2]oct-3-yl]-5-(3-chlorophenyl)-1,3-oxazole-2-carboxamide 4-Methylbenzenesulfonate] came in with an inhibition constant Ki of 20 to 75 nM.

`COc1cccc(-c2cnc(C(=O)N[C@H]3CN4CCC3CC4)o2)c1` [Example 80, N-[(3R)-1-azabicyclo[2.2.2]oct-3-yl]-5-(3-methoxyphenyl)-1,3-oxazole-2-carboxamide 4-methylbenzenesulfonate] had a Ki of 50 to 60 nM.

As to `O=C(N[C@H]1CN2CCC1CC2)c1ncc(-c2cccc([N+](=O)[O-])c2)o1` [Example 81, N-[(3R)-1-azabicyclo[2.2.2]oct-3-yl]-5-(3-nitrophenyl)-1,3-oxazole carboxamide 4-methylbenzenesulfonate], the inhibitory constant (Ki) fell in the range of 55 to 175 nM.

Molecule `COc1ccc(-c2cnc(C(=O)N[C@H]3CN4CCC3CC4)o2)cc1` [Example 82, N-[(3R)-1-azabicyclo[2.2.2]oct-3-yl]-5-(4-methoxyphenyl)-1,3-oxazole-2-carboxamide 4-methylbenzenesulfonate] gave a Ki of 115 to 125 nM.

Turning to `O=C(N[C@H]1CN2CCC1CC2)c1ncc(-c2ccccc2[N+](=O)[O-])o1` [Example 83, N-[(3R)-1-azabicyclo[2.2.2]oct-3-yl]-5-(2-nitrophenyl)-1,3-oxazole-2-carboxamide 4-methylbenzenesulfonate], the Ki was in the range of 2 to 3 nM.
